# Results reported in publication PMC6017062, “Probing the Inhibitor versus Chaperone Properties of sp^2-Iminosugars towards Human β-Glucocerebrosidase: A Picomolar Chaperone for Gaucher Disease” (Molecules : A Journal of Synthetic Chemistry and Natural …, 2018).
# Substitutions are numbered along the chain they refer to. Like-named read-outs stand apart in the source and are kept apart here.
# How the values were obtained:
# [1] = molecular target: T1, human β-glucocerebrosidase (GCase) (Homo sapiens, UniProt P04062, R534H); assay: Purified recombinant human GCase inhibition in vitro; format: biochemical; conditions: for Ki: purified recombinant enzyme (Cerezyme), 4-MU glucopyranoside substrate
# T1 construct: purchased Genzyme (Genzyme Japan, Tokyo, Japan) / Sanofi Genzyme, Cambridge, MA, USA Cerezyme
# T1 sequence (P04062 40-536 R534H): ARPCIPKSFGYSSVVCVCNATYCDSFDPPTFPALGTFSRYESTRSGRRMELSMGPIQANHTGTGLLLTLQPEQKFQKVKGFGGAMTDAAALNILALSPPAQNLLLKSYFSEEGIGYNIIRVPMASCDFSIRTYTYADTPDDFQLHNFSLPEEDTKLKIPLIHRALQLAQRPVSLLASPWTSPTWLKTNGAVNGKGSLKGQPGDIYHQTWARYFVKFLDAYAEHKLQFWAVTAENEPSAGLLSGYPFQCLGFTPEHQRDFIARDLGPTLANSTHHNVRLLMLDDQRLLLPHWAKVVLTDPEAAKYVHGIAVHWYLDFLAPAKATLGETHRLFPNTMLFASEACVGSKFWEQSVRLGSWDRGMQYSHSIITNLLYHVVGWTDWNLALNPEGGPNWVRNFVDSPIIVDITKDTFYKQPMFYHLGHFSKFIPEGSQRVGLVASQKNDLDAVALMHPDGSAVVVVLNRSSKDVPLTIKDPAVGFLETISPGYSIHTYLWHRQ
# Method: Comparative assessment of the inhibition abilities of 1–4 against human lysosomal glycosidases in cell lysates (in vitro enzyme assay; see Experimental Section) confirmed the selectivity pattern previously observed for the commercial enzymes: whereas GCase was responsive to μM concentrations of the sp^2-iminosugars, the activity of lysosomal α-glucosidase, α- and β-galactosidases, α- and β-mannosidases, and hexosaminidase was not affected at concentrations of up to 200 μM. The corresponding Ki values were determined at pH 7 and 5 using purified recombinant human GCase and 4-methylumbelliferone (4-MU)-conjugated […] as the substrate (Table 2).
# GCase activities were determined as above using purified human GCase, obtained from Genzyme (Genzyme Japan, Tokyo, Japan) in 0.1 M citrate buffer at pH 5 or pH 7 and 4-methylumbelliferone (4-MU)-conjugated β-D-glucopyranoside as the substrate. The reactions were terminated by adding 0.2 mL of 0.2 M glycine sodium hydroxide buffer (pH 10.7). The liberated 4-methylumbelliferone was measured in a black-well plate with a Perkin Elmer Luminescence Spectrometer, Waltham, MA, USA (excitation wavelength: 340 nm; emission: 460 nm).
# [2] = pKa determination; format: physicochemical
# [3] = molecular target: T2, GCase (Homo sapiens, UniProt P04062); assay: GCase activity in cultured healthy human fibroblasts; format: cell-based; conditions: 5 days culture
# T2 construct: endogenous in cells; host or cells: normal human skin fibroblasts
# T2 sequence (P04062 40-536): T1 sequence (P04062 40-536 R534H) with H495R
# Method: For that purpose, cells were cultured for 5 days in the absence and in the presence of various concentrations of the compounds, then lysed, and the enzyme activity was determined using 4-methylumbelliferyl β-D-glucopyranoside as substrate. Higher GCase activities in the lysate indicate that larger amounts of the protein are present and that it is functional.
# (§1) Normal and Gaucher disease patients’ skin fibroblasts were cultured in Dulbecco modified Eagle’s medium (WAKO, Richmond, VA, USA) supplemented with 10% fetal bovine serum (Nichirei Biosci. Inc., Tokyo, Japan) at 37 °C in 5% CO2. For measurement of chaperone activities, fibroblasts were plated onto 35 mm dishes at 50,000 cells per dish. After 24 h incubation, the medium with the indicated concentrations of compound was applied and cells were cultured for 96 h. Then, the lysates in 0.1% Triton-X100/distilled H2O were collected from the cells and assayed for lysosomal GCase as described above. To measure the cytotoxic effect of the compounds, normal human fibroblasts were plated onto 35 mm dishes at 15,000 cells per dish and incubated overnight. Then, the medium was changed with or without compounds. After 24 h incubation, the supernatant of the cells was collected and measured by the lactate dehydrogenase assay (WAKO, Richmond, VA, USA). All the cell lines used were tested for mycoplasma contamination before conducting the chaperone and toxicity assays.
# [4] = molecular target: T3, N188S/G183W mutant GCase (Homo sapiens, UniProt P04062, N227S); assay: Chaperone test in N188S/G183W type 3 Gaucher patient fibroblasts; format: cell-based; conditions: N188S/G183W Gaucher fibroblasts
# T3 construct: endogenous in cells; host or cells: skin fibroblasts of N188S/G183W type 3 Gaucher patients
# T3 sequence (P04062 40-536 N227S): T1 sequence (P04062 40-536 R534H) with N188S, H495R
# Excerpt: To test the chaperoning capabilities, Gaucher fibroblasts from patients hosting the adult neuronopathic (type 3) Gaucher disease-associated N188S/G183W mutant GCase were employed. It is worth mentioning that the neuronopathic clinical subtypes of Gaucher disease remain currently at orphan status, given the inability of the recombinant enzyme used in enzyme replacement therapy or the glucosylceramide synthase inhibitor Zavesca® used in substrate reduction therapy to cross the blood–brain barrier. This mutation is located in the catalytic domain (domain III) of GCase and has been previously found to be responsive to sp^2-iminosugar-type chaperones. […] Yet, the activity trend as a function of the chaperone concentration was starkly different between them. Thus, the nonreducing representatives 3 and 4 reached the maximum chaperoning effect at 200 nM and as low as 2 nM concentration, respectively, as compared with 20 and 2 μM for the reducing homologues 1 and 2.
# as §1
# [5] = system: L444P mutant GCase; set-up: method as in PMID 22512696; conditions: homozygous L444P Gaucher lymphoblasts; cited from earlier work
# [6] = system: L444P mutant GCase; conditions: homozygous L444P Gaucher fibroblasts; cited from earlier work
# [7] = pH 5, read-out: Ki human GCase, pH 5
# [8] = pH 7, read-out: Ki human GCase, pH 7
"Ki [1, 7] [µM]","Ki [1, 8] [µM]",pKa [2],GCase activity in healthy human fibroblasts over the whole range of concentrations [3],concentration of maximum chaperoning effect [4] [µM],Structure (SMILES),also measured
54.4 ± 0.38,15.1 ± 0.97,8.9,essentially unaltered,20,CCCCCCCCN=C1OCC2C(O)C(O)C(O)C(O)N12 (stereo not shown) [Compound 1],–
1.05 ± 0.068,0.26 ± 0.013,8.3,essentially unaltered,2,CCCCCCCCN=C1SCC2C(O)C(O)C(O)C(O)N12 (stereo not shown) [Compound 2],"fold enhancement of GCase inhibition potency upon replacement of O-6 by sulfur, pH 5 ([1]; pH 5, 2 vs 1, 4 vs 3): 52 fold; fold enhancement of GCase inhibition potency upon replacement of O-6 by sulfur, pH 7 ([1]; pH 7, 2 vs 1, 4 vs 3): 58 fold"
6.3 ± 0.16,1.7 ± 0.066,9.3,–,0.2,CCCCCCCC/N=C1/OC[C@@H]2[C@@H](O)[C@H](O)[C@@H](O)CN12 [Compound 3],"fold stronger GCase inhibition of nonreducing vs reducing partner ([1]; 3 vs 1, 4 vs 2): about 10 fold; GCase activity in lysates of healthy human fibroblasts at 20 μM ([3]; 20 μM): virtually full inhibition; GCase activity in lysates of healthy human fibroblasts at higher concentrations ([3]; concentrations higher than 20 nM): significantly inhibited; concentration over which chaperone/inhibitor balance is unfavorable (net decrease in mutant enzyme activity vs control) [4]: over 20 μM"
–,–,–,–,–,"CCCCCCCCCN[C@H]1[C@H](O)[C@@H](O)[C@H](O)[C@@H](O)[C@@H]1OCCCCCCCCC [Compound 19, (1R,2S,3R,4S,5S,6R)-5-(nonylamino)-6-(nonyloxy)cyclohexane-1,2,3,4-tetraol]",mutant GCase activity enhancement at 10 pM [5]: 40%
–,–,–,–,–,CCCCCCCCCC(=O)OC[C@H](C[C@H]1NC[C@@H](O)[C@H](O)[C@H]1O)OC(=O)CCCCCCCCC [Compound 23],mutant GCase activity enhancement at 50 nM [6]: 100%
